Patent EP0097202A1, “Hydrazinopyridazine compound, process for production thereof, and use thereof as medicament” (TEIKOKU HORMONE MFG. CO., LTD., priority 1982, dated 1984)
Read-outs that look alike come from different tables or passages of the source.

Tests used:
Assay type in all cases: in vivo, male Wistar rats
β1-adrenoceptors = molecular target: T1, β1-adrenoceptors (Rattus norvegicus, UniProt P18090); experiment: β-adrenoceptor blocking activity: inhibition of the isoproterenol-induced increase in heart rate in anesthetized rats; conditions: iv, 0.05 h
T1 construct: Experiments were done using male Wistar rats weighing between 300 and 400 g, anesthetized with sodium pentobarbital; from tissue; host or cells: whole animal (anesthetized male Wistar rats), cardiac response in vivo
T1 sequence (P18090 whole entry): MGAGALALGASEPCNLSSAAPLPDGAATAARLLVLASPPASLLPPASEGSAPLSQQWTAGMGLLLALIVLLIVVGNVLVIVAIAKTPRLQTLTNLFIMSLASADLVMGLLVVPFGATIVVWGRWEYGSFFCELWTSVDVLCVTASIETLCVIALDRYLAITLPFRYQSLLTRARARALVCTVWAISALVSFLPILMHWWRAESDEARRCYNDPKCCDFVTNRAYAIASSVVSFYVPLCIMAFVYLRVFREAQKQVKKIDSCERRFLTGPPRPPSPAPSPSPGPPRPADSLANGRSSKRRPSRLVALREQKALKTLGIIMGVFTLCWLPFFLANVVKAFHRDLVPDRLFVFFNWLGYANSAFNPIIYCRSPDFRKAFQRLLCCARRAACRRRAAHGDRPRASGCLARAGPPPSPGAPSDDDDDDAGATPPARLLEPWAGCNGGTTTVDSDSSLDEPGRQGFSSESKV
Description: (§1) Experiments were done using male Wistar rats weighing between 300 and 400 g, anesthetized with sodium pentobarbital (60 mg/kg i.p.). The blood pressure was directly measured by connecting a cannula inserted in the femoral artery to a pressure transducer and the heart rate was calculated from the pulse waves of the blood pressure tracings. Each value shown here was obtained from three animals. The test compounds were individually dissolved in physiological saline solution or a 0.01 N aqueous solution of hydrochloric acid.
The increased heart rate before injection of the test compound was represented by H1. Three minutes after i.v. injection of the test compound, isoproterenol (0.1 µg/kg i.v.) was again administered and then the change in heart rate was measured. The maximum increase in heart rate after injection of the test compound was designated as H2. From these values, the percent inhibition of the change in heart rate was calculated in accordance with the following equation.
Percent inhibition of the heart rate [formula]
(§2) By repeating the procedure mentioned above at various doses of the test compounds, dose-response curves were prepared.

[1] = vasodilating activity (hypotensive activity): maximum fall in blood pressure in anesthetized rats; conditions: maximum fall in blood pressure during 40 minutes after 1 mg/kg i.v., three animals
Description: as §1
Each test compound dissolved in physiological saline solution or 0.01 N hydrochloric acid was intravenously injected into rats in a fixed dose of 1 mg/kg and the blood pressure was continuously monitored for 40 minutes. The maximum fall in blood pressure during this period was determined and taken as the hypotensive activity of each compound.

β2-adrenoceptor = experiment: β-adrenoceptor blocking activity: inhibition of the isoproterenol-induced fall in blood pressure in anesthetized rats; conditions: 50 % inhibition of fall in blood pressure by isoproterenol 0.1 µg/kg i.v.
Description: as §1, §2

[2] = read-out: β-adrenoceptor blocking action ID50

Compound | ED50 (β1-adrenoceptors; [2]) | Hypotensive action [1] | β-adrenoceptor blocking action ID50 β2 (β2-adrenoceptor) | ED50 (β1-adrenoceptors; read-out: β-adrenoceptor blocking action ID50 β1)
CCc1ccccc1OCC(O)CNC(C)(C)COc1ccc(NN)nn1 (stereo not shown) [D, 1-(2-ethylphenoxy)-3-[1,1-dimethyl-2-(3-hydrazino-6-pyridazinyloxy)ethylamino]-2-propanol] | 0.2 mg/kg | +++ (35 mmHg or more) | – | –
Cc1ccc(Cl)c(OCC(O)CNC(C)(C)COc2ccc(NN)nn2)c1 (stereo not shown) [H, 1-(2-chloro-5-methylphenoxy)-3-[1,1-dimethyl-2-(3-hydrazino-6-pyridazinyloxy)ethylamino]-2-propanol] | 0.15 mg/kg | ++ (a fall in blood pressure of 25 to 34 mmHg) | – | –
COCc1ccccc1OCC(O)CNC(C)(C)COc1ccc(NN)nn1 (stereo not shown) [L, 1-(2-methoxymethylphenoxy)-3-[1,1-dimethyl-2-(3-hydrazino-6-pyridazinyloxy)ethylamino]-2-propanol] | 0.03 mg/kg | +++ (35 mmHg or more) | – | –
CC(C)(COc1ccc(NN)nn1)NCC(O)COc1ccccc1C#N (stereo not shown) [I, 1-(2-cyanophenoxy)-3-[1,1-dimethyl-2-(3-hydrazino-6-pyridazinyloxy)ethylamino]-2-propanol] | 0.02 mg/kg | +++ (35 mmHg or more) | 0.1 mg/kg i.v. | –
CCOCc1ccccc1OCC(O)CNC(C)(C)COc1ccc(NN)nn1 (stereo not shown) [M, 1-(2-ethoxymethylphenoxy)-3-[1;1-dimethyl-2-(3-hydrazino-6-pyridazinyloxy)ethylamino]-2-propanol] | 0.06 mg/kg | ++ (a fall in blood pressure of 25 to 34 mmHg) | – | –
C#Cc1ccccc1OCC(O)CNC(C)(C)COc1ccc(NN)nn1 (stereo not shown) [R, 1-(2-ethinylphenoxy)-3-[1,1-dimethyl-2-(3-hydrazino-6-pyridazinyloxy)ethylamino]-2-propanol] | 0.02 mg/kg | +++ (35 mmHg or more) | No antagonistic action at 0.1 | –
CC(C)(COc1ccc(NN)nn1)NCC(O)COc1cc(Cl)ccc1C#N (stereo not shown) [J, 1-(2-cyano-5-chlorophenoxy)-3-[1,1-dimethyl-2-(3-hydrazino-6-pyridazinyloxy)ethylamino]-2-propanol] | 0.12 mg/kg | ++ (a fall in blood pressure of 25 to 34 mmHg) | – | –
CCCc1ccccc1OCC(O)CNC(C)(C)COc1ccc(NN)nn1 (stereo not shown) [E, 1-(2-propylphenoxy)-3-[1,1-dimethyl-2-(3-hydrazino-6-pyridazinyloxy)ethylamino]-2-propanol] | 0.2 mg/kg | ++ (a fall in blood pressure of 25 to 34 mmHg) | – | –
Cc1ccccc1OCC(O)CNC(C)(C)COc1ccc(NN)nn1 (stereo not shown) [C, 1-(2-methylphenoxy)-3-[1,1-dimethyl-2-(3-hydrazino-6-pyridazinyloxy)ethylamino]-2-propanol] | 0.015 mg/kg | +++ (35 mmHg or more) | 0.45 mg/kg i.v. | –
Cc1ccc(C#N)c(OCC(O)CNC(C)(C)COc2ccc(NN)nn2)c1 (stereo not shown) [K, 1-(2-cyano-5-methylphenoxy)-3-[1,1-dimethyl-2-(3-hydrazino-6-pyridazinyloxy)ethylamino]-2-propanol] | 0.05 mg/kg | +++ (35 mmHg or more) | 0.1 mg/kg i.v. | –
CC(C)=NNc1ccc(OCC(C)(C)NCC(O)COc2cc(C)ccc2Cl)nn1 (stereo not shown) [G, 1-(2-chloro-5-methylphenoxy)-3-[1,1-dimethyl-2-(3-isopropylidenehydrazino-6-pyridazinyloxy)ethylamino]-2-propanol] | 0.15 mg/kg | ++ (a fall in blood pressure of 25 to 34 mmHg) | – | –
C=CCOc1ccccc1OCC(O)CNC(C)(C)COc1ccc(NN)nn1 (stereo not shown) [P, 1-(2-allyloxyphenoxy)-3-[1,1-dimethyl-2-(3-hydrazino-6-pyridazinyloxy)ethylamino]-2-propanol] | 0.1 mg/kg | ++ (a fall in blood pressure of 25 to 34 mmHg) | – | –
CC(C)(COc1ccc(NN)nn1)NCC(O)COc1ccccc1Cl (stereo not shown) [B, 1-(2-chlorophenoxy)-3-[1,1-dimethyl-2-(3-hydrozino-6-pyridazinyloxy)ethylamino]-2-propanol] | 0.008 mg/kg | +++ (35 mmHg or more) | 0.23 mg/kg i.v. | –
Cc1ccccc1OCC(O)CNC(C)(C)CSc1ccc(NN)nn1 (stereo not shown) [Q, 1-(2-methylphenoxy)-3-[1,1-dimethyl-2-(3-hydrazino-6-pyridazinylthio)ethylamino]-2-propanol] | 0.04 mg/kg | ++ (a fall in blood pressure of 25 to 34 mmHg) | – | –
CC(C)(COc1ccc(NN)nn1)NCC(O)COc1ccccc1 (stereo not shown) [A, 1-penoxy-3-[1,1-dimethyl-2-(3-hydrozino-6-pyridazinyloxy)ethylamino]-2-propanol] | 0.04 mg/kg | ++ (a fall in blood pressure of 25 to 34 mmHg) | – | –
COCCc1ccccc1OCC(O)CNC(C)(C)COc1ccc(NN)nn1 (stereo not shown) [N, 1-[2-(2-methoxyethyl)phenoxy]-3-[1,1-dimethyl-2-(3-hydrazino-6-pyridazinyloxy)ethylamino]-2-propanol] | 0.08 mg/kg | +++ (35 mmHg or more) | – | –
CC(C)NCC(O)COc1ccc(CC(N)=O)cc1 (stereo not shown) [Atenolol, reference compound] | – | – | 1.5 mg/kg i.v. | 0.05 mg/kg
Cc1cccc(OCC(O)CNC(C)(C)COc2ccc(NN)nn2)c1Cl (stereo not shown) [F, 1-(2-chloro-3-methylphenoxy)-3-[1,1-dimethyl-2-(3-hydrazino-6-pyridazinyloxy)ethylamino]-2-propanol] | 0.08 mg/kg | ++ (a fall in blood pressure of 25 to 34 mmHg) | – | –
CCOCCc1ccccc1OCC(O)CNC(C)(C)COc1ccc(NN)nn1 (stereo not shown) [O] | 0.16 mg/kg | ++ (a fall in blood pressure of 25 to 34 mmHg) | – | –
